Consider one molecule from publication PMC9738107, “Targeting of the ELR+CXCL/CXCR1/2 Pathway Is a Relevant Strategy for the Treatment of Paediatric Medulloblastomas” (Cells, 2022).

What is called IC50 is the midpoint of a concentration-inhibition curve.

Assay [1] relates to Primary mouse astrocytes (C8D1A). As to the kind of experiment: IC50 on normal cells (XTT / cell death by PI staining). The settings on record: C8-D1A, 48 h of treatment. Type of assay: cell-based. The source says: We then determined the selectivity index (SI), which is the IC50 value for normal cells divided by the IC50 value for tumour cells, to assess the overall toxicity on normal tissues. These IC50 values determined by XTT assays or measurement of cell death by PI staining were nearly equivalent (Figure 3E,F). Primary mouse astrocytes (C8D1A) were selected based on their nervous system lineage. […] The SI was thus 6.44 for Daoy, 2.84 for ONS-76, 10.7 for HD-MB03, and 3.94 for D341Med, indicating selectivity towards tumour cell death at the doses considered. These values are also consistent with those determined for renal cancer cells. […]
(§1) 1500 Daoy, ONS ‐76, HD ‐MB03 or D341 Med cells were sown in triplicate in plates with six wells and the cells were counted daily for 8 days using a Coulter counter (Ville‐ pinte). The relative number of cells (compared to day 1) was determined daily. […]
(§2) Y = Y0 * exp(k * X) (Y= Cell number at day X; Y0= Cell number at day 0 (graphically calculated); X= Day following cell plating (cells plated at X0=0); k= Exponential growth constant rate. Doubling times were compared.
(§3) 150 Daoy/DR1/DR2/ ONS ‐ 76 and 300 HD ‐ MB03/HR1/HR2 cells were seeded in trip‐ licate in 6‐well plates in the presence or absence of treatment (1 or 2∙5μM MCK140 or DMSO as control). […] The number of clones was quantified using ImageJ software. […]

Assay [2] deals with DR1/DR2 and HR1/HR2 radio-resistant cells. As to the kind of experiment: Cell proliferation assay (cell counting), radiation-resistant cells. Type of assay: cell-based, human. The settings on record: 1 µM. The procedure: Figure 8 C29 is efficient on radioresistant MB cell lines. (A) Cell death after 48 h of treatment with control (DMSO, CT) or C29 1, 2.5, or 5 µM on radiation-resistant cells (RR) and normal cells (N), n = 3. Statistics were performed using the one-way method ANOVA. * p < 0.05, ** p < 0.01, *** p < 0.001. For this figure, DR1 = D1, DR2 = D2, HR1 = H1, HR2 = H2, and C8D1A = C8. (B) Proliferation of DR1/DR2 (A) and HR1/HR2 (B) radio-resistant cells after 1 µM C29 treatment or control (DMSO), n = 3. (C) Clonogenic assay on DR1, DR2 (n = 3) and HR1, HR2 (n = 3) cells after treatment with control (DMSO) or C29 (1 µM or 2.5 µM). […] Results are expressed as percentage of control (n = 3). […]
as §1, §2, §3

The test system of assay [3] is uveal melanoma cells (Mel202). On the set-up: method as in PMID 24676409. The settings on record: Mel202, low expression of CXCR1/2; cited from earlier work.

For the molecule `O=C(Nc1cccc(Cl)c1)Nc1nc2ccc([N+](=O)[O-])cc2s1` [C29, 1-(3-chlorophenyl)-3-(6-nitrobenzo[d]thiazol-2-yl) urea], it took 19.3 µM to reach half-maximal inhibition in assay [1] (IC50). Besides, the Proliferation entry in assay [2] is recorded as “reduce proliferation”. For the same molecule, in assay [3], the “Effect on proliferation and survival” value is “no effect”.
